Assay results from paper PMC8533206 (Antioxidants, 2021).
Read-outs that look alike come from different tables or passages of the source.

Columns and labels:
PC12 cells [1] = test: 6-OHDA-induced ROS generation in PC12 cells (H2-DCFDA); type: cell-based, rat
Procedure: (§1) The involvement of oxidative stress in the observed reduction in cell viability was investigated using the fluorescent dye H2-DCFDA as described previously. Briefly, cells were loaded with 10 μM H2-DCFDA for 30 min at 37 °C. Subsequently, cells were exposed for 4 h to 10 μM of test compounds followed by the addition of 50 μM 6-OHDA or 1 μM rotenone for 20 h, and fluorescence was measured spectrophotometrically at 488/520 nm in a microplate reader (SpectraMax M2e). N-acetylcysteine (NAC, 5 mM) was included as a […] control for oxidative stress.

PC12 cells [2] = test: Rotenone-induced ROS generation in PC12 cells (H2-DCFDA); type: cell-based, rat; details: 5 mM, positive reference
Procedure: as §1

[3] = Protective effect against 6-OHDA-induced cytotoxicity in PC12 cells (MTT); details: rat
Procedure: (§2) PC12 cells were routinely maintained in RPMI-1640 media containing 100 IU/mL penicillin, and 100 μg/mL streptomycin supplemented by 10% heat-inactivated HS, 5% FBS in a humidified incubator containing 5% CO2 and 95% air at 37 °C [25]. The cell culture media was changed every two days. To perform experiments, cells were plated on poly-D-lysine/laminin-coated 24-well plates at a density of 3 × 10^5 cells/well and incubated for at least 24 h to allow cell adhesion.
(§3) To examine the effects of the test compounds on cell survival, cells were incubated in low serum media (1% HS, 1% FBS, 100 IU/mL penicillin, and 100 μg/mL streptomycin) with test compounds at the concentrations of 10 and 30 μM or an equivalent volume of vehicle control (DMSO at the final concentration of 0.3%) for 24 h. The media containing test compounds was sonicated at room temperature for 30 min to assure adequate dissolution in the media. […]
(§4) After the desired treatment, cell viability was determined by MTT assay as described previously, with slight modification. […] The absorbance of the dissolved solution was measured at 550 nm using a microplate reader (SpectraMax M2e, Molecular Devices, Sunnyvale, CA, USA). The cell viability was presented as the percentage of the absorbance measured in the vehicle-treated control cells. […]

MAO-B = details: cited from earlier work; for % MAO-B Inhibition: single dose 10 μM; for Selectivity Index (SI): MAO-B over MAO-A, calculated
MAO-A = details: cited from earlier work
PC12 cells [4] = test: Protective effect against rotenone-induced cytotoxicity in PC12 cells (MTT); details: 1 μM rotenone, 24 h, compared to vehicle-treated control
Procedure: as §2, §3, §4

[5] = previously reported indazole derivatives

With CC(=O)N[C@@H](CS)C(=O)O [NAC, N-acetylcysteine, reference compound] the “Effect on 6-OHDA-induced ROS generation” value (PC12 cells [1]; 5 mM, positive reference) was “dramatic inhibition of ROS” and the “Effect on rotenone-induced ROS generation” value (PC12 cells [2]) was “dramatic inhibition of ROS”.
For NCCc1cc(O)c(O)cc1O [Compound 6-OHDA, 6-Hydroxydopamine, reference compound], the viability at 24 h, 50 μM [3] was 47.5 ± 1.2% and the “ROS generation, fold of control cells” value (PC12 cells [1]; 6-OHDA 50 μM, 20 h) was “approximately 4 fold”.
In the case of O=C(Nc1ccc2c(ccn2Cc2ccc(F)cc2)c1)c1cnccn1 [IX], the IC50 (MAO-B; previous study) is given as 1.66 µM, the “% MAO-B Inhibition” value (MAO-B; previous study) is given as 88.49% and the IC50 (MAO-A; previous study) is given as over 100 µM.
In the case of O=C(Nc1ccc2[nH]ncc2c1)c1cccc(Cl)c1Cl [V], the IC50 (MAO-B; [5]) is listed as 2.59 µM and the IC50 (MAO-A; [5]) is listed as over 10 µM.
For C=C(C)[C@H]1Cc2c(ccc3c2O[C@@H]2COc4cc(OC)c(OC)cc4[C@@H]2C3=O)O1 [rotenone, reference compound], the “Cell death of PC12 cells exposed to toxin” value (PC12 cells [4]) was 53.1 ± 2.9%.
In the case of O=C(Nc1ccc2[nH]ncc2c1)c1c(F)cccc1Cl [VI], the IC50 (MAO-B; [5]) is given as 3.3 µM and the IC50 (MAO-A; [5]) is given as over 10 µM.
In the case of O=C(Nc1ccc2c(ccn2C(=O)c2cccc(F)c2)c1)c1cnccn1 [VIII, N-(1-(3-fluorobenzoyl)-1H-indol-5-yl)pyrazine-2-carboxamide], the “Selectivity Index (SI)” value (MAO-B; previous study) is listed as over 120, the IC50 (MAO-B; previous study) is listed as 0.777 µM and the “% MAO-B Inhibition” value (MAO-B; previous study) is listed as 66.39%. The IC50 (MAO-A; previous study) was over 100 µM.
In the case of O=C(Nc1ccc2c(ccn2Cc2ccccn2)c1)c1cnccn1 [X], the “% MAO-B Inhibition” value (MAO-B; previous study) is given as 2.38%.
In the case of COc1ccc2c(c1)[nH]c1c(C)nccc12 [harmine], the IC50 (MAO-A; selective MAO-A inhibitor) is listed as 0.006 µM.
For Cn1cc(C(=O)Nc2ccc3[nH]ncc3c2)ccc1=O [IV], the IC50 (MAO-B; [5]) is given as over 10 µM and the IC50 (MAO-A; [5]) is given as over 10 µM.
For Cn1ccc2cc(NC(=O)c3cnccn3)ccc21 [VII], the “% MAO-B Inhibition” value (MAO-B; previous study) is listed as 49.68%.
